The results in this text go back to ChEMBL document CHEMBL2040771, “Discovery of a potent inhibitor of anaplastic lymphoma kinase with in vivo antitumor activity” (ACS Med Chem Lett, 2010).

SMILES strings stand for the structures. Activity calls are given as the source filed them. The calls are words filed in the database; no cut-off is given here. Some results are limits rather than exact numbers.

Series [1] addresses Platelet-derived growth factor receptor beta (Homo sapiens) (UniProt P09619). The series can be described thus: Inhibition of PDGFRB at 0.1 uM.
Series [2] in a line: Half life in SCID mouse at 1 mg/kg, iv. Further details: dose 1 mg/kg, route intravenous. The class given is ADME, organism-based. The note with it: in vivo.
Series [3] can be described thus: AUC in Sprague-Dawley rat at 1 mg/kg, iv. The class given is ADME, organism-based. Further details: dose 1 mg/kg, route intravenous. The settings on record: plasma.
The subject of series [4] is Mus musculus. The series can be described thus: Toxicity in SCID mouse xenografted with human SUP-M2 cells at 10 mg/kg, po BID for 12 days. Further details: dose 10 mg/kg, route oral. The note with it: in vivo, 288 h. The series is classed as organism-based.
A further series relates to K562. In words: Growth inhibition of ALK-negative human K562 cells up to 1 uM by MTS assay. The series is classed as functional, cell-based. For orientation: Tetrazolium assays rely on reduction of a dye to a coloured formazan, in cell work by metabolically active cells.
A short description of series [5]: Plasma clearance in Sprague-Dawley rat at 1 mg/kg, iv by LC/MS/MS analysis. The class given is ADME, organism-based. Further details: dose 1 mg/kg, route intravenous.
A short description of series [6]: AUC in beagle dog at 10 mg/kg, po. Further details: dose 10 mg/kg, route oral. The series is classed as ADME, organism-based, Canis lupus familiaris. The note with it: plasma.
The target in series [7] is Serine/threonine-protein kinase 32B (Homo sapiens) (UniProt Q9NY57). The series can be described thus: Inhibition of YANK2 at 0.1 uM.
Series [8] in a line: Half life in Sprague-Dawley rat at 5 mg/kg, po. The class given is ADME, organism-based. Further details: dose 5 mg/kg, route oral. The settings on record: in vivo.
Series [9] has as its system Epidermal growth factor receptor (Homo sapiens), P00533 [L861Q]. The series can be described thus: Inhibition of EGFR L861Q mutant at 0.1 uM. The series is classed as protein assay.
For series [10], the system named is Mus musculus. The series can be described thus: Antitumor activity in ALK-positive human SUP-M2 cells xenografted in SCID mouse assessed as inhibition of NPM-ALK autophosphorylation in tumor lysate at 30 mg/kg, po administered as single dose measured after 12 hrs. The series is classed as functional. The settings on record: SUP-M2, Neoplasm, read-out: TGI. In general terms: In xenograft studies the graft and the host belong to different species.

Series [11] is described as follows: Drug uptake in tumor lysates in SCID mouse xenografted with ALK-positive human SUP-M2 cells at 10 mg/kg, po bid for 12 days. The series is classed as ADME, organism-based, Neoplasm. Further details: dose 10 mg/kg, route oral. The settings on record: read-out: Drug uptake.
The target in another series is Insulin receptor (Homo sapiens, UniProt P06213). In words: Inhibition of insulin receptor.
The nature of series [12]: Plasma concentration in SCID mouse xenografted with ALK-positive human SUP-M2 cells at 55 mg/kg, po bid for 12 days. The series is classed as ADME, organism-based. Further details: dose 55 mg/kg, route oral.
For series [13], the system named is Receptor-type tyrosine-protein kinase FLT3 (Homo sapiens), P36888 [D835H]. In words: Inhibition of FLT3 D835H mutant at 1 uM.
Series [14] deals with Epidermal growth factor receptor (Homo sapiens) (UniProt P00533). In words: Inhibition of EGFR at 1 uM.
Epidermal growth factor receptor (Homo sapiens), sequence (P00533 whole entry): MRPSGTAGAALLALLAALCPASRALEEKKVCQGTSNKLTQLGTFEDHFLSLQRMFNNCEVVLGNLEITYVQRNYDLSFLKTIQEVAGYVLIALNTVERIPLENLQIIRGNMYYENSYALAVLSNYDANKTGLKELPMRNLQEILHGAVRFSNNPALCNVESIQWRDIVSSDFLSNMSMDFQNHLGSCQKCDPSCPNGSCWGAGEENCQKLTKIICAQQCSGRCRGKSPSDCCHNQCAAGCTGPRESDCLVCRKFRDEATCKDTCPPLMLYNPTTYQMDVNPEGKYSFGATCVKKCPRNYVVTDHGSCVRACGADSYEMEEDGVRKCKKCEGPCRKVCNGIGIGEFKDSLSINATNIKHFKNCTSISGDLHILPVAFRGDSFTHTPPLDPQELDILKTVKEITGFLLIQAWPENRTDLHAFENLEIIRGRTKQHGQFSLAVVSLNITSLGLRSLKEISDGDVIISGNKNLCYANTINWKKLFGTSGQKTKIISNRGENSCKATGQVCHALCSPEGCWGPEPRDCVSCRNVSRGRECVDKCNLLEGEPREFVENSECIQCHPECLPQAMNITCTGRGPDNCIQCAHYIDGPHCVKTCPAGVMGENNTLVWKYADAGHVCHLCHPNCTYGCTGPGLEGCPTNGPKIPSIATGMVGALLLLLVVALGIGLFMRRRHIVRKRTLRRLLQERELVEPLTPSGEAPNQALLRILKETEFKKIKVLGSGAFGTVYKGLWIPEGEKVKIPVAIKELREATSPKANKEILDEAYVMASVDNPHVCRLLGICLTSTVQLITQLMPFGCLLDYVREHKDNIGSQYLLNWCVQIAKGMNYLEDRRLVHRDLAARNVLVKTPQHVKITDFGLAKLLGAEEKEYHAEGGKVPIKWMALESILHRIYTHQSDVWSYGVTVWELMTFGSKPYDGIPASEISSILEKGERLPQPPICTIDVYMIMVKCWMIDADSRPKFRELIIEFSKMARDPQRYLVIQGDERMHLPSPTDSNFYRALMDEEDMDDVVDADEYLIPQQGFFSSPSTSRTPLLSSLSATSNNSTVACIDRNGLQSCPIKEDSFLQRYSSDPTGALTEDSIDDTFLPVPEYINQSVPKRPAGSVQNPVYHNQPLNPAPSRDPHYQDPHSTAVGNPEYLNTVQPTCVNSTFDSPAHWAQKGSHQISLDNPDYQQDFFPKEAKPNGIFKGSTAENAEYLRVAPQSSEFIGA
For series [15], the target named is Tyrosine-protein kinase Srms (Homo sapiens) (UniProt Q9H3Y6). The series can be described thus: Inhibition of SRMS at 1 uM.
Series [16] relates to KARPAS-299. In words: Growth inhibition of ALK-positive human KARPAS299 cells by MTS assay. The series is classed as functional, cell-based.
Series [17] addresses Serine/threonine-protein kinase 33 (Homo sapiens) (UniProt Q9BYT3). In words: Inhibition of STK33 at 1 uM.
Series [18] concerns the target Focal adhesion kinase 1 (Homo sapiens) (UniProt Q05397). The series can be described thus: Inhibition of FAK at 1 uM.
For series [19], the target named is Fibroblast growth factor receptor 4 (Homo sapiens) (UniProt P22455). In words: Inhibition of FGFR4 at 1 uM.
Fibroblast growth factor receptor 4 (Homo sapiens), sequence (P22455 22-802 limits assumed): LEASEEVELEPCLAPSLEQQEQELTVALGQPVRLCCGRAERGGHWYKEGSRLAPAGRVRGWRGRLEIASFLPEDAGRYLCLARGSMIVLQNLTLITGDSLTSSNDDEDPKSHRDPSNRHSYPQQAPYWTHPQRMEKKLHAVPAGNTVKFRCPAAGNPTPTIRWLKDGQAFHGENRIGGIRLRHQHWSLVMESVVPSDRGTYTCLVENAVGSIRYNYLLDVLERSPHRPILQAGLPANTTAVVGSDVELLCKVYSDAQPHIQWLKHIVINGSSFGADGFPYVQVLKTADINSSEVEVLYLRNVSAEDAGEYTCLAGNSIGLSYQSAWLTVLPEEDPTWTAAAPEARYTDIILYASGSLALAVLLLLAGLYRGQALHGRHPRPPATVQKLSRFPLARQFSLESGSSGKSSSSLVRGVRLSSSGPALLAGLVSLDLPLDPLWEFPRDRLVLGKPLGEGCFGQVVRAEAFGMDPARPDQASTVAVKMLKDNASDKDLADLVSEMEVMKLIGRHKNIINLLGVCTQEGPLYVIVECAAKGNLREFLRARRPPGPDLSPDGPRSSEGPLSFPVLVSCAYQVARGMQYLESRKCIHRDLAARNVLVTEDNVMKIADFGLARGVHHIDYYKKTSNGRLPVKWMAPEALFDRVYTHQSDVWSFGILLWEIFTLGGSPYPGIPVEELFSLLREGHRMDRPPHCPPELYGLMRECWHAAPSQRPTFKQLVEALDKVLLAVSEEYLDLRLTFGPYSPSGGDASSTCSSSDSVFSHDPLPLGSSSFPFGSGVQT
The test system of series [20] is KARPAS-299. The series can be described thus: Induction apoptosis in ALK-positive human KARPAS299 cells assessed as activation of caspase 3/7 by fluorometric assay. The class given is functional, cell-based.
Series [21] addresses Proto-oncogene tyrosine-protein kinase ROS (Homo sapiens) (UniProt P08922). The series can be described thus: Inhibition of ROS at 0.1 uM.
The target of series [22] is Tyrosine-protein kinase Fer (Homo sapiens) (UniProt P16591). In words: Inhibition of FER at 1 uM.
Tyrosine-protein kinase Fer (Homo sapiens), sequence (P16591 whole entry, looked up): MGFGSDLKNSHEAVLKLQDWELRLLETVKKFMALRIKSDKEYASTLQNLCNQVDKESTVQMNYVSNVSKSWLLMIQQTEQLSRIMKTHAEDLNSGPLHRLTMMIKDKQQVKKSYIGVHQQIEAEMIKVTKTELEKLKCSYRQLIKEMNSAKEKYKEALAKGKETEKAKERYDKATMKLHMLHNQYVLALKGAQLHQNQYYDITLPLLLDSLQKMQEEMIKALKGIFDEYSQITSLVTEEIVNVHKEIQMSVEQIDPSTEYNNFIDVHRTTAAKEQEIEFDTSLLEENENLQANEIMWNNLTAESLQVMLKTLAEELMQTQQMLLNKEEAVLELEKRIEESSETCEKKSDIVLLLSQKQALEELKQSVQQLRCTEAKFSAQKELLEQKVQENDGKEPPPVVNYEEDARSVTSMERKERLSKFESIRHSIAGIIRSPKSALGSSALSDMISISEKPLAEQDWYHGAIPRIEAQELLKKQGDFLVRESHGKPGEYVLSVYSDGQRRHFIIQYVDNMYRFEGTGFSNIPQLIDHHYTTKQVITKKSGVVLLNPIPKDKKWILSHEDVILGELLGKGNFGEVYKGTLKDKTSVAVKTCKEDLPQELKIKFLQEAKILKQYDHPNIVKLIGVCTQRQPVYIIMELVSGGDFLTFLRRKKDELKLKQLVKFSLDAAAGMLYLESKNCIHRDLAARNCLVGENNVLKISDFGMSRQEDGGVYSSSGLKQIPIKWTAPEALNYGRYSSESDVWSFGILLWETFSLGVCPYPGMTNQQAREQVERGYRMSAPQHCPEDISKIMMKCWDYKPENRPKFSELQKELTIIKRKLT

Epidermal growth factor receptor (Homo sapiens), P00533 [L861Q], sequence (P00533 whole entry L861Q): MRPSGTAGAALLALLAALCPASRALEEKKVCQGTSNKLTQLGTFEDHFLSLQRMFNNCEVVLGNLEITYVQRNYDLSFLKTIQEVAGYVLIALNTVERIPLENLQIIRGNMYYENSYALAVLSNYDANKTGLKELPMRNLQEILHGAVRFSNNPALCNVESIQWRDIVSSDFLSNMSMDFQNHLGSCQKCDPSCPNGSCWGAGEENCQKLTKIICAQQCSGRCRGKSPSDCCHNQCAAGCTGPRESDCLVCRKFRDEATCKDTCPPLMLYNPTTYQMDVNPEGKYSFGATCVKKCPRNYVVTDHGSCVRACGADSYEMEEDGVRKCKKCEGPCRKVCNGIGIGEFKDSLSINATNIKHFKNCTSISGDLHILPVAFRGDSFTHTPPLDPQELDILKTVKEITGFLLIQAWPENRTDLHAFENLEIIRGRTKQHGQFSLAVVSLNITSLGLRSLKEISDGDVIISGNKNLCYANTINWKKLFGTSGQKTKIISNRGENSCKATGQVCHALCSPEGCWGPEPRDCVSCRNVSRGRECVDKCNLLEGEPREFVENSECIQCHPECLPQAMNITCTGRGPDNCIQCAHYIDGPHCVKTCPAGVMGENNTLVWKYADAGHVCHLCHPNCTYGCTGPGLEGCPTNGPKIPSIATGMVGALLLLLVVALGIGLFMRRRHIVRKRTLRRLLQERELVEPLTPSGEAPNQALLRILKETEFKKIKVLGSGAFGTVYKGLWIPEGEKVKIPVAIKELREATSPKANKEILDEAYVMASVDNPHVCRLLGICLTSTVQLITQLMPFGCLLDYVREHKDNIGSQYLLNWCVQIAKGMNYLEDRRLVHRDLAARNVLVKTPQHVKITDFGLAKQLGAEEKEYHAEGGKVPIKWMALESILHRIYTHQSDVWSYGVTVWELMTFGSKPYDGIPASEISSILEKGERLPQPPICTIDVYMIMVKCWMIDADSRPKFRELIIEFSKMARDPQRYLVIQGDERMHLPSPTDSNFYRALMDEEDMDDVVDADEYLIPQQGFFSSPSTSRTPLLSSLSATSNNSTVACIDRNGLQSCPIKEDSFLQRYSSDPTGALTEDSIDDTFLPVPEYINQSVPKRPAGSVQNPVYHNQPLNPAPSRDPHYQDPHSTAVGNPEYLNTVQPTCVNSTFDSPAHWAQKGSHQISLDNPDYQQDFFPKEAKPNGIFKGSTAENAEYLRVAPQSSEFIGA
Focal adhesion kinase 1 (Homo sapiens), sequence (Q05397 2-1052 limits assumed): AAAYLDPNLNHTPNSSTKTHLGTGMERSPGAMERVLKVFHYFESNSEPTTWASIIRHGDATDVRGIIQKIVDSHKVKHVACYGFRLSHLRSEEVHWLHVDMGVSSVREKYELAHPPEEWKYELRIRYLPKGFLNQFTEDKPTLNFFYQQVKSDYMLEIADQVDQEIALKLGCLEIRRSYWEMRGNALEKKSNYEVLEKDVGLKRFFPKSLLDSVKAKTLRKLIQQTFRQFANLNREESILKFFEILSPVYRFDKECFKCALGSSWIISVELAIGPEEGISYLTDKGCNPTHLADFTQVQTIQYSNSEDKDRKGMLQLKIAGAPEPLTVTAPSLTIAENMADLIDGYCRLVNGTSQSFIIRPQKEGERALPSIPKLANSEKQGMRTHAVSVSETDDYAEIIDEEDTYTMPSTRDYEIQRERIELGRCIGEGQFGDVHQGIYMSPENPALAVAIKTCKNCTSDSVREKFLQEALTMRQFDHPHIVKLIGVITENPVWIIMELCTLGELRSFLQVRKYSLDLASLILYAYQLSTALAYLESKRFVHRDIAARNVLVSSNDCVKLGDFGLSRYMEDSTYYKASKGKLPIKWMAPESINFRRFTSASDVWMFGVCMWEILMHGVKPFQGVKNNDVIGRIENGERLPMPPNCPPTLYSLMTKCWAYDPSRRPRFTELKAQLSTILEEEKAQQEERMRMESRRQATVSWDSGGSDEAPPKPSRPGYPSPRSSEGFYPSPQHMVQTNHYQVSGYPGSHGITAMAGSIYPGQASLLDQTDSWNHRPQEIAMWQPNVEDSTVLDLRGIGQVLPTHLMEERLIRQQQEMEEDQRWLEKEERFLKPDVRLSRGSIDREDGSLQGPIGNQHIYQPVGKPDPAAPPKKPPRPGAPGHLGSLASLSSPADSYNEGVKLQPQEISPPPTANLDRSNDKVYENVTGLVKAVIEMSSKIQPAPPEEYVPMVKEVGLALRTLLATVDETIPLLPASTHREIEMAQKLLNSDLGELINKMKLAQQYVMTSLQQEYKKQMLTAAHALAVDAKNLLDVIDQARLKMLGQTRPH

What is called inhibition is the relative decrease from the control value, in per cent. Read a low inhibition as a weak effect. By half-life is commonly meant how long it takes for the measured level to halve. By AUC is commonly meant concentration integrated over time. Low values mean low exposure, high ones high exposure. The clearance is the volume of plasma or blood freed of the substance per unit of time. The term IC50 denotes the concentration at which inhibition is half-maximal. A lower IC50 goes with inhibition by little substance. The EC50 is the concentration that produces a half-maximal response. Lower therefore signals a more potent agent. With `CCN1C(=O)CCCc2c1ccc(Nc1ncc(Cl)c(N[C@H]3[C@@H](C(N)=O)[C@@H]4C=C[C@H]3C4)n1)c2OC`, the inhibition in [1] was 66%; in series [7] it was below 50%; in series [9], below 50%; in series [13], 95%; in [14], 96%; in series [15] it was 94%. Also, the inhibition turned out to be 99% in series [17]; 99% in series [18]; 98% in [19]; 77% in series [21]; 100% in series [22]. Also, the half-life in [2] is 18 min; in [8], 132 min. For the same compound, the AUC in [3] came out at 1280 ng·h/mL; in [6] it was 2480 ng·h/mL. The Activity result with Mus musculus [4] is recorded as “Non-toxic”. The “growth inhibition (GI)” value in the series on K562 was “inactive”. Further, the clearance in series [5] was 13 mL/min/kg. Besides, the inhibition in vivo at 30 mg/kg in the series on Mus musculus [10] was above 80%. The concentration at 288 h in series [11] worked out at 3560 ng/g; in series [12], 3700 ng/mL. Besides, the IC50 against Insulin receptor is 597 nM. In the series with KARPAS-299 [16], this compound displayed an EC50 of 200 nM. Besides, the outcome in the series on KARPAS-299 [20] was Active.
